The values below come from US11926614B2, “1,2,4-triazole derivatives as tankyrase inhibitors” (priority 2018, dated 2024).

The target in one test is TNKS2 (Homo sapiens (Human), UniProt Q9H2K2). The experiment in a line: Biochemical IC50 TNKS2. The text has this:
(§1) XLfit (idbs) was used to determine the IC50-values in inhibition experiments. The following formula was chosen to fit the data points (Langmuir Binding Isotherm): fit=((A+(B*x))+4(C−B)*(1−exp((−1*D)*x)))/D)), res=(y−fit)

The next test deals with HEK293. The test is described as follows: Cellular IC50 HEK293. The class given is cell-based. Particulars: Homo sapiens.
Description: as §1

The mark [1] stands for this setting: read-out: Biochemical IC50 TNKS2.
Where [2] appears, read: HEK293, read-out: Cellular IC50 HEK293.
The mark [3] stands for this setting: HEK293, HEK293, read-out: Cellular IC50 HEK293.

Read-outs that look alike come from different tables or passages of the source.

TNKS2, sequence (Q9H2K2 whole entry): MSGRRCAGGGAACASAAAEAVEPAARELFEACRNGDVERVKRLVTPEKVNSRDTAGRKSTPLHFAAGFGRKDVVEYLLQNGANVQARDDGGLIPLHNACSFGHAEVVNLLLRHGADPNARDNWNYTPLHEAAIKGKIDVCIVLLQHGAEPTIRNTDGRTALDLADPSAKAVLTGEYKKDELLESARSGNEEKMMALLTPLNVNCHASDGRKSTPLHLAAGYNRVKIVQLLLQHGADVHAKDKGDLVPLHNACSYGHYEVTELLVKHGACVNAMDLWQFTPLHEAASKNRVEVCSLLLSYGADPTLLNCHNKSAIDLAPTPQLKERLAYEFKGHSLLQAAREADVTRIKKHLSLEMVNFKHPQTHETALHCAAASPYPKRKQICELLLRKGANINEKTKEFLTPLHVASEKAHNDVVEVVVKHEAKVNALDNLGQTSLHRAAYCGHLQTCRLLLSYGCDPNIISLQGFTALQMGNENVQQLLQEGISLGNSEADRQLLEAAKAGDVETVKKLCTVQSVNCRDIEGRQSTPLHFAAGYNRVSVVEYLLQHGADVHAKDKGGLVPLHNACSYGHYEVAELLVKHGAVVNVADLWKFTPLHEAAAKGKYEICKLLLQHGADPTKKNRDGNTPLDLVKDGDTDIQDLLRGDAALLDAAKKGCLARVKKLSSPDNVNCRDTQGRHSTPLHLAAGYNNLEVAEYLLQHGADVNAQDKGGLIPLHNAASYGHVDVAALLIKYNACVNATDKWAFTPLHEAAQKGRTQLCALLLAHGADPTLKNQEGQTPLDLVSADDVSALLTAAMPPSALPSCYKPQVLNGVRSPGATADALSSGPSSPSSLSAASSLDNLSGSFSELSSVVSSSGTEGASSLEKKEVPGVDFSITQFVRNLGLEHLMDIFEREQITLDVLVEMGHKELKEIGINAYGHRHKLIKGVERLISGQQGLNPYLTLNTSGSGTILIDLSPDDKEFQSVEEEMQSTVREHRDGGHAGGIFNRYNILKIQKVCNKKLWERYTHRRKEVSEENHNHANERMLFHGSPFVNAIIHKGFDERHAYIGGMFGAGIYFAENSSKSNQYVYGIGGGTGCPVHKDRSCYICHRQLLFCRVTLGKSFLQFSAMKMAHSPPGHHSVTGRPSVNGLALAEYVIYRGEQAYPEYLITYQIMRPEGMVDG

For `O=C(N[C@H]1C[C@H](c2nnc(-c3ccc(OC4CC4)cn3)n2-c2ccccc2F)C1)c1ccccn1` [Example 106, N-((1S,3r)-3-(5-(5-cyclopropoxypyridin-2-yl)-4-(2-fluorophenyl)-4H-1,2,4-triazol-3-yl)cyclobutyl)picolinamide], the IC50 (as a rule, the concentration needed to halve the response being measured) at TNKS2 (setting [1]) was 8.6 nM; in the test on HEK293 (setting [2]) it was 49 nM.
Turning to `[2H]C([2H])([2H])Oc1ccc(-c2nnc([C@H]3C[C@H](NC(=O)c4ccccn4)C3)n2-c2ccccc2F)nc1` [Example 113, N-((1S,3r)-3-(4-(2-fluorophenyl)-5-(5-(methoxy-d3)pyridin-2-yl)-4H-1,2,4-triazol-3-yl)cyclobutyl)picolinamide], the values for the IC50 against TNKS2 and in the test on HEK293 (setting [3]) were 5.6 nM and 74 nM, respectively.
`CCOc1ccc(-c2nnc([C@H]3C[C@H](NC(=O)c4ccnc5cc(F)cnc45)C3)n2-c2ccccn2)nc1` [Example 160, N-((1r,3r)-3-(5-(5-ethoxypyridin-2-yl)-4-(pyridin-2-yl)-4H-1,2,4-triazol-3-yl)cyclobutyl)-7-fluoro-1,5-naphthyridine-4-carboxamide]: the IC50 is 22 nM on TNKS2 (setting [1]) and 9 nM with HEK293 (setting [2]).
Regarding `CCOc1ccc(-c2nnc([C@H]3C[C@H](NC(=O)c4ccn(C)n4)C3)n2-c2ccccc2F)nc1` [Example 120, N-((1S,3r)-3-(5-(5-ethoxypyridin-2-yl)-4-(2-fluorophenyl)-4H-1,2,4-triazol-3-yl)cyclobutyl)-1-methyl-1H-pyrazole-3-carboxamide], the IC50 on TNKS2 (setting [1]) amounted to 18 nM; with HEK293 (setting [3]) it was 65 nM.
Consider `CCOc1ccc(-c2nnc([C@H]3C[C@H](NC(=O)c4cccc(C)n4)C3)n2-c2ccccc2F)nc1` [Example 119, N-((1S,3r)-3-(5-(5-ethoxypyridin-2-yl)-4-(2-fluorophenyl)-4H-1,2,4-triazol-3-yl)cyclobutyl)-6-methylpicolinamide], for which the IC50 at TNKS2 (setting [1]) worked out at 5 nM; in the test with HEK293 (setting [3]) it was 39 nM.
`CCOc1ccc(-c2nnc([C@H]3C[C@H](NC(=O)c4cc5ccccc5cn4)C3)n2-c2ccccc2F)nc1` [Example 99, N-((1S,3r)-3-(5-(5-ethoxypyridin-2-yl)-4-(2-fluorophenyl)-4H-1,2,4-triazol-3-yl)cyclobutyl)isoquinoline-3-carboxamide]: the figures for the IC50 at TNKS2 (setting [1]) and in the test with HEK293 (setting [3]) were 5.4 nM and 18 nM, respectively.
With `O=C(N[C@H]1C[C@H](c2nnc(-c3ccccn3)n2-c2ccccc2F)C1)c1cccc2nccnc12` [Example 193, N-((1S,3r)-3-(4-(2-fluorophenyl)-5-(pyridin-2-yl)-4H-1,2,4-triazol-3-yl)cyclobutyl)quinoxaline-5-carboxamide], the IC50 worked out at 1.6 nM at TNKS2 (setting [1]) and 0.286 nM in the test with HEK293 (setting [2]).
On to `O=C(N[C@H]1C[C@H](c2nnc(-c3nccs3)n2-c2ccccn2)C1)c1ccnc2cc(F)cnc12` [Example 39, 7-fluoro-N-((1r,3r)-3-(4-(pyridin-2-yl)-5-(thiazol-2-yl)-4H-1,2,4-triazol-3-yl)cyclobutyl)-1,5-naphthyridine-4-carboxamide], for which the IC50 at TNKS2 (setting [1]) turned out to be 28 nM; with HEK293 (setting [3]), 16 nM.
Taken in the same sequence, the figures for `CCOc1ccc(-c2nnc([C@H]3C[C@H](NC(=O)c4ccc5ncccc5n4)C3)n2-c2cccnc2)nc1` [Example 163, N-((1r,3r)-3-(5-(5-ethoxypyridin-2-yl)-4-(pyridin-3-yl)-4H-1,2,4-triazol-3-yl)cyclobutyl)-1,5-naphthyridine-2-carboxamide] were 14 nM and 71 nM.
In the case of `CCOc1ccc(-c2nnc([C@H]3C[C@H](NC(=O)c4ccc(F)cc4)C3)n2-c2ccccc2Cl)nc1` [Example 137, N-((1S,3r)-3-(4-(2-chlorophenyl)-5-(5-ethoxypyridin-2-yl)-4H-1,2,4-triazol-3-yl)cyclobutyl)-4-fluorobenzamide], the IC50 at TNKS2 (setting [1]) amounted to 4.9 nM; in the test on HEK293 (setting [3]) it was 10 nM.
